# Active and inactive are the calls of the source. The rule behind the calls is not given here.
# Legend:
# [1] = Stability in mouse plasma measured after 60 mins; format: ADME, cell-free; conditions: read-out: Stability
# Marburgvirus [2] = test: Antiviral activity against pseudotyped Marburgvirus Angola infected in human A549 cells assessed as inhibition of Pseudoviral entry incubated for 40 hrs; format: functional, organism-based; conditions: Orthomarburgvirus, A549, 40 h
# [3] = Selectivity index, ratio of CC50 for cytotoxicity against human A549 cells to EC50 for antiviral activity against pseudotyped Marburgvirus Angola infected in human A549 cells assessed as inhibition of Pseudoviral entry; format: toxicity, cell-based; conditions: read-out: Ratio CC50/EC50
# [4] = Stability in human plasma measured after 60 mins; format: ADME, cell-free; conditions: read-out: Stability
# Ebolavirus [5] = test: Antiviral activity against pseudotyped EBOV Mayinga infected in human A549 cells assessed as inhibition of Pseudoviral entry incubated for 40 hrs; format: functional, organism-based; conditions: Orthoebolavirus, A549, 40 h
# [6] = Metabolic stability in human microsome measured at 60 min; format: ADME; conditions: microsomes, read-out: Stability
# [7] = Selectivity index, ratio of CC50 for cytotoxicity against human A549 cells to EC50 for antiviral activity against pseudotyped EBOV Mayinga infected in human A549 cells assessed as inhibition of Pseudoviral entry; format: toxicity, cell-based; conditions: read-out: Ratio CC50/EC50
# A549 = test: Cytotoxicity against human A549 cells assessed as as reduction in cell viability incubated for 48 hrs by celltiter-glo assay; format: functional
# [8] = Binding affinity to EBOV glycoprotein assessed as dissociation constant by SPR analysis; set-up: species or system Ebolavirus
# Ebolavirus [9] = test: Antiviral activity against EBOV Mayinga infected in human HeLa cells assessed as inhibition of viral replication incubated for 40 hrs; format: functional, organism-based; conditions: Orthoebolavirus
# Sudan ebolavirus [10] = test: Antiviral activity against pseudotyped Sudan ebolavirus Gulu infected in human HeLa cells assessed as inhibition of viral replication; format: functional, organism-based
# Bundibugyo virus = test: Antiviral activity against pseudotyped Bundibugyo virus infected in human A549 cells assessed as inhibition of viral growth; format: functional, organism-based
# Sudan ebolavirus [11] = test: Antiviral activity against pseudotyped Sudan ebolavirus Gulu infected in human A549 cells assessed as inhibition of viral growth; format: functional, organism-based
# Tai Forest ebolavirus = test: Antiviral activity against pseudotyped Tai Forest ebolavirus infected in human A549 cells assessed as inhibition of viral growth; format: functional, organism-based
# Marburgvirus [12] = test: Antiviral activity against Marburgvirus Angola infected in human Huh-7 cells assessed as inhibition of viral replication; format: functional, organism-based; conditions: Orthomarburgvirus
# CYP2C9 = CYP2C9 (Homo sapiens, UniProt P11712); test: Inhibition of CYP2C9 in human liver microsomes using tolbutamide as substrate at 10 uM preincubated with compound for 5 mins followed by NADPH addition and measured after 20 mins by LC-MS/MS analysis relative to control; format: ADME, Microsome; conditions: probe tolbutamide, time 25 min
# Chain of CYP2C9 (P11712 whole entry): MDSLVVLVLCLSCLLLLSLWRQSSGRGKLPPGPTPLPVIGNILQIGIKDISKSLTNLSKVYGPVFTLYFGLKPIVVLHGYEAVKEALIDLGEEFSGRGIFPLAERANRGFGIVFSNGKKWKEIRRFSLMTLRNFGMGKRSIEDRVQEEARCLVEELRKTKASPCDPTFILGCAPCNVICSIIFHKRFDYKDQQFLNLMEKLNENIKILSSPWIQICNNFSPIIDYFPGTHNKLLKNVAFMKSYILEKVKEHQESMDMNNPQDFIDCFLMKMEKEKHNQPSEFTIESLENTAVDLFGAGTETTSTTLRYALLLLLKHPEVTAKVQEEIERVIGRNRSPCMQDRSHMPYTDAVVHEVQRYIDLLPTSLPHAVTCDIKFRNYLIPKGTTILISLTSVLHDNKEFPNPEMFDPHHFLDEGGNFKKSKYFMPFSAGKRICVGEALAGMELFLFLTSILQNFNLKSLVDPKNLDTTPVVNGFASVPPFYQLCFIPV
# Marburgvirus [13] = test: Antiviral activity against pseudotyped Marburgvirus Angola infected in human A549 cells assessed as inhibition of viral growth at 10 uM entry measured after 2 hrs; format: functional, organism-based
# Ebolavirus [14] = test: Antiviral activity against pseudotyped EBOV Mayinga infected in human A549 cells assessed as inhibition of viral growth at 3 uM measured after 3 hrs; format: functional, organism-based
# CYP2D6 = CYP2D6 (Homo sapiens, UniProt P10635); test: Inhibition of CYP2D6 in human liver microsomes using dextromethorphan as substrate at 10 uM preincubated with compound for 5 mins followed by NADPH addition and measured after 20 mins by LC-MS/MS analysis relative to control; format: ADME, Microsome; conditions: probe dextromethorphan, time 25 min
# Chain of CYP2D6 (P10635 whole entry): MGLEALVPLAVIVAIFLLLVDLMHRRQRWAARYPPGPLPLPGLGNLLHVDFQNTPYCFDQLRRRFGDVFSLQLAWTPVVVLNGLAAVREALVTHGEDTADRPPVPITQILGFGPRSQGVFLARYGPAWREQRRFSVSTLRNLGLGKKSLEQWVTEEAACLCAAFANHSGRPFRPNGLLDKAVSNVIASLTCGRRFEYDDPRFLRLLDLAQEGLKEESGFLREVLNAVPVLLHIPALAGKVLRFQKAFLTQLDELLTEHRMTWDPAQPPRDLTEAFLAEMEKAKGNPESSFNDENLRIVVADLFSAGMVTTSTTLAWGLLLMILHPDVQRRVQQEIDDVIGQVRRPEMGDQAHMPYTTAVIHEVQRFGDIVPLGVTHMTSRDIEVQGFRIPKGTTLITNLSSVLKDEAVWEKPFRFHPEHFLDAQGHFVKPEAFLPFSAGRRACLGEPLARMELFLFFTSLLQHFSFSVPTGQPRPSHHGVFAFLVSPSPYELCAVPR
# Ebolavirus [15] = test: Antiviral activity against pseudotyped EBOV 1976 Zaire Mayinga assessed as inhibition of viral growth; format: functional, organism-based; conditions: Orthoebolavirus
# Marburgvirus [16] = test: Antiviral activity against pseudotyped Marburgvirus 2005 Lake Victoria Angola assessed as inhibition of viral growth; format: functional, organism-based; conditions: Orthomarburgvirus
# Ebolavirus [17] = test: Antiviral activity against infectious EBOV 1976 Zaire Mayinga assessed as inhibition of viral growth; format: functional, organism-based; conditions: Orthoebolavirus
SMILES,EC50 (Marburgvirus [2]) [µM],selectivity ratio [3],EC50 (Ebolavirus [5]) [µM],selectivity ratio [7],also measured
CN(C)C1CCN(C(=O)c2cn(Cc3ccccc3)c3ccccc23)CC1,14.6,6.9,2.84,–,remaining at 1 h [1]: 100%; remaining at 1 h [4]: 100%; remaining at 1 h [6]: 95.7%
CC1CCN(c2ccc(NC(=O)c3cc4occc4n3Cc3ccc(Cl)cc3)cc2C(F)(F)F)CC1,13.6,7.4,4.03,25,CC50 (A549): > 100 µM
O=C(Nc1ccc(N2CCOCC2)cc1)c1cc2occc2n1Cc1ccc(Cl)cc1,> 100,1,> 100,1,CC50 (A549): > 100 µM
OCCOc1ccc(/C(=C(/CCCl)c2ccccc2)c2ccccc2)cc1 [OSPEMIFENE],–,–,–,–,Kd [8]: 19.8 µM
CN(C)C1CCN(C(=O)c2cc3occc3n2Cc2cccc(C(F)(F)F)c2)CC1,9.72,10,1.5,67,CC50 (A549): ~100 µM
CN(C)C1CCN(C(=O)c2cc3ccccc3n2Cc2ccc(F)cc2)CC1,4.99,13,0.453,100,EC50 (Ebolavirus [9]): > 20 µM; EC50 (Sudan ebolavirus [10]): 1.01 µM; EC50 (Bundibugyo virus): 0.353 µM; EC50 (Sudan ebolavirus [11]): 0.554 µM; EC50 (Tai Forest ebolavirus): 2.7 µM; EC50 (Marburgvirus [12]): > 20 µM
CN(C)C1CCN(C(=O)c2cc3occc3n2Cc2ccc(Cl)cc2)CC1,11.5,5.3,1.05,58,EC50 (Ebolavirus [9]): 6.21 µM; EC50 (Sudan ebolavirus [10]): 0.5 µM; remaining at 1 h [1]: 100%; remaining at 1 h [4]: 100%; EC50 (Bundibugyo virus): 1.99 µM; EC50 (Sudan ebolavirus [11]): 0.641 µM; EC50 (Tai Forest ebolavirus): 5.6 µM; EC50 (Marburgvirus [12]): 7.96 µM
CN(C)CCNC(=O)c1cc2ccccc2n1Cc1ccc(Cl)cc1,3.92,7.5,3.49,8.4,EC50 (Bundibugyo virus): 2.66 µM; EC50 (Sudan ebolavirus [11]): 0.834 µM; EC50 (Tai Forest ebolavirus): 3.74 µM
CN(C)C1CCN(C(=O)c2cc3ccccc3n2CC2CCCCC2)CC1,3.34,15,0.295,170,"EC50 (Ebolavirus [9]): 0.391 µM; EC50 (Sudan ebolavirus [10]): 0.652 µM; remaining at 1 h [1]: 100%; remaining at 1 h [4]: 100%; inhibition at 20 min, 10 µM (CYP2C9): 4.82%; Activity (Marburgvirus [13]): inactive; Activity (Ebolavirus [14]): inactive; inhibition at 20 min, 10 µM (CYP2D6): 19.1%; EC50 (Marburgvirus [12]): 1.32 µM"
CN(C)C1CCN(C(=O)c2cn(Cc3ccc(F)cc3)c3ccccc23)CC1,10.9,6.9,2.54,30,–
CN(C)CCNC(=O)c1cc2occc2n1Cc1ccc(Cl)cc1,6.47,9.8,1.26,50,EC50 (Ebolavirus [9]): 2.43 µM; EC50 (Sudan ebolavirus [10]): 3.29 µM; remaining at 1 h [1]: 100%; remaining at 1 h [4]: 100%; EC50 (Bundibugyo virus): 1.95 µM; EC50 (Ebolavirus [15]): 1.26 µM; EC50 (Marburgvirus [16]): 7.7 µM; EC50 (Sudan ebolavirus [11]): 1.04 µM; EC50 (Tai Forest ebolavirus): 4.3 µM; EC50 (Ebolavirus [17]): 5.2 µM; EC50 (Marburgvirus [12]): 6.69 µM
O=C(c1cc2sccc2n1Cc1ccc(Cl)cc1)N1CCN(C2CCCCC2)CC1,13.9,3.8,10.9,4.9,–
CN(C)C1CCN(C(=O)c2cc3occc3n2C(=O)OCc2ccccc2)CC1,29.8,> 3.4,1.68,> 60,–
CN(C)C1CCN(C(=O)c2cccn2Cc2ccccc2)CC1,17.8,5.6,1.11,90,–

# — ChEMBL document CHEMBL5576160, “N-Substituted Pyrrole-Based Heterocycles as Broad-Spectrum Filoviral Entry Inhibitors” (J Med Chem, 2024)
